Test results taken from patent publication US20150065440A1 (Progen Pharmaceuticals Limited, priority 2007, published 2015).
Counter-ions that a name gives are not always drawn. Like-named read-outs stand apart in the source and are kept apart here.

How the values were obtained:
[1] = target: T1, VEGF (Homo sapiens, UniProt P15692); assay: Growth factor binding assay (SPR solution affinity), VEGF; conditions: HBS-EP buffer, 25° C.
T1 sequence (P15692 207-395): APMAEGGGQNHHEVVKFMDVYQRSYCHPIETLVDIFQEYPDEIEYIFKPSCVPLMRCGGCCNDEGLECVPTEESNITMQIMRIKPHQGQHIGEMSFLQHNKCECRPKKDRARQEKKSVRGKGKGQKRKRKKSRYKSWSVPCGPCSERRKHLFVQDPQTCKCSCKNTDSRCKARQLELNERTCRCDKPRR
Experimental: (§1) Binding affinities of compounds for the growth factors FGF-1, FGF-2 and VEGF were measured using a surface plasmon resonance (SPR) based solution affinity assay.^9 Heparin-coated sensorchips used for this assay were prepared via immobilisation of biotinylated BSA-heparin on a streptavidin-coated sensorchip, or via aldehyde coupling using either adipic acid dihydrazide or 1,4-diaminobutane.^9 For each Kd measurement, solutions were prepared containing a fixed concentration of protein and varying concentrations of the ligand in buffer. Ligands binding to FGF-1 and VEGF were measured in HBS-EP buffer (10 mM HEPES, pH 7.4, 150 mM NaCl, 3.0 mM EDTA and 0.005% (v/v) polysorbate 20), while binding to FGF-2 was measured in HBS-EP buffer containing 0.3 M NaCl. Prior to injection, samples were maintained at 4° C. to maximise protein stability. For each assay mixture, 50-200 μL of solution was injected at 5-40 μL/min and the relative binding response measured. All surface binding experiments were performed at 25° C. The surface was regenerated by injection of 40 μL of 4M NaCl at 40 μL/min, followed by injection of 40 μL of buffer at 40 μL/min.
(§2) Sensorgram data were analysed using the BIAevaluation software (BIAcore) and Kd values determined as previously described.^9 Where Kd values were measured in duplicate, the values represent the average of the duplicate measurements.

[2] = target: FGF-1 (Homo sapiens, UniProt P05230); assay: Growth factor binding assay (SPR solution affinity), FGF-1
Experimental: as §1, §2

[3] = target: FGF-2 (Homo sapiens, UniProt P09038); assay: Growth factor binding assay (SPR solution affinity), FGF-2; conditions: SPR, HBS-EP buffer containing 0.3 M NaCl, 25° C.; read-out: Kd FGF-2
Experimental: as §1, §2

[4] = system: pooled normal human plasma; assay: Anticoagulant activity, APTT; conditions: 0.1 mg/mL in normal pooled human plasma
Experimental: APTT measurements were performed on a STAGO STA-Compact Coagulation Analyser using standard protocols according to the manufacturer's instructions. Unfractionated heparin (UFH) was used as a control.

[5] = system: normal pooled human plasma; assay: Anticoagulant activity, Heptest; conditions: 0.1 mg/mL in normal pooled human plasma
[6] = system: HSV-2; assay: Viral plaque number-reduction assay, HSV-2; conditions: Human alphaherpesvirus 2, read-out: HSV-2 IC50
Experimental: (§3) African green monkey kidney (GMK AH1) cells^46 were cultured in Eagle's minimum essential medium (EMEM) supplemented with 2% calf serum, 0.05% Primaton RL substance (Kraft Inc., Norwich, USA) and antibiotics. Human epidermoid carcinoma (HEp-2) cells were cultured in Dulbecco's modified EMEM (DMEM) supplemented with 10% fetal calf serum and antibiotics. […] The RSV strain A-2^50 was used. The RSV stock was prepared as described by Hallak et al.^51 and stored at −70° C. in the presence of 40% sucrose^52.
(§4) The viral infectivity (the plaque number-reduction) assay and the plaque size-reduction assay were carried out as described previously^17. […] Subsequently, the cells were washed with 2 mL of EMEM and overlaid with 1% methylcellulose solution in EMEM. The plaques were visualized by staining with crystal violet solution after 2 (HSV-2) or 3 (HSV-1) days of incubation at 37° C. […] When the compounds were screened for anti-HSV or anti-RSV activity, mixtures of 200 PFU of the virus and the test compound (100 μg/mL) in serum-free EMEM were incubated for 10 min at room temperature before addition to cells and during the entire period of viral infection of cells and the development of viral plaques. In the plaque size-reduction assay, the compounds were added to cells (in methylcellulose overlay medium) after 2 h period of virus infection of cells in the absence of the inhibitor. After 2-3 days of incubation at 37° C., the viral plaques were visualized by staining the cells with 1% solution of crystal violet. For each compound tested, the images of twenty neighboring plaques were captured using a Leica DC300 digital camera attached to a Leitz-Wetzlar Diavert microscope. The area of each plaque was determined using IM500 image software (Leica). Similar protocols were used for RSV, except that the assays were performed in HEp-2 cells and DMEM supplemented with 2% heat-inactivated fetal calf serum was used instead of EMEM.

[7] = system: RSV; assay: Viral plaque number-reduction assay, RSV; conditions: human respiratory syncytial virus, read-out: RSV IC50
Experimental: as §3, §4

[8] = target: T2, recombinant human heparanase (Homo sapiens, UniProt Q9Y251); assay: Heparanase inhibition assay (fondaparinux cleavage, WST-1); conditions: read-out: Ki Heparanase; IC50 converted into Ki; fondaparinux 100 μM, pH 5.0
T2 sequence (Q9Y251 158-543 limits assumed): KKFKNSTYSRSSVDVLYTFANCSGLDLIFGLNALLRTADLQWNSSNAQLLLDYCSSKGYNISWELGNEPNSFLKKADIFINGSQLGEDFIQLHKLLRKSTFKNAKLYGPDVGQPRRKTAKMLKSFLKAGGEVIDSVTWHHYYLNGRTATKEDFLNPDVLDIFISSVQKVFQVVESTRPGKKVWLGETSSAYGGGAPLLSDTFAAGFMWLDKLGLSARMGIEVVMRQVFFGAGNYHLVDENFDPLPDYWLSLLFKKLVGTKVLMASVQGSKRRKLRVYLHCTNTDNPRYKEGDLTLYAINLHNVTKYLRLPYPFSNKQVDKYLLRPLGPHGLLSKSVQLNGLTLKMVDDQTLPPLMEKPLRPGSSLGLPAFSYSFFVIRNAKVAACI
T2 sequence (Q9Y251 36-109 limits assumed): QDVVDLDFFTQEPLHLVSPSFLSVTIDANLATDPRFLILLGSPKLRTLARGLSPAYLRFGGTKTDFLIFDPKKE
Experimental: In the presence of an inhibitor the catalytic activity of heparanase is reduced, and the amount of disaccharide produced and the optical density of the solution are both decreased. The percent inhibition and IC50 of the inhibitor are determined from measurement of the optical density (OD) over a range of inhibitor concentrations.
Assays were carried out in 40 mM sodium acetate buffer, pH 5.0, as follows. […] A blue colour was developed by incubation of the plates at 60° C. for 60 min. […] The IC50 value for each compound was evaluated and converted into a Ki (inhibition constant) using the expression

[9] = SPR, HBS-EP buffer, 25° C., read-out: Kd FGF-1

Chain of FGF-1 (P05230 whole entry, species assumed): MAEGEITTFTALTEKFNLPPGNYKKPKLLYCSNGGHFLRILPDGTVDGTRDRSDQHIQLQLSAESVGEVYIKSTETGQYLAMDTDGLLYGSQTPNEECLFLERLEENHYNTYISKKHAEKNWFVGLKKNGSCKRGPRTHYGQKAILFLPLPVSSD
Chain of FGF-2 (P09038 143-288, species assumed): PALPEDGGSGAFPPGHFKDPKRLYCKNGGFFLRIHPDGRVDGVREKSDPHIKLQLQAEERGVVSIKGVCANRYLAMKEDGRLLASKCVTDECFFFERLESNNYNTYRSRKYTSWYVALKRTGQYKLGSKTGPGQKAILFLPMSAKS

| SMILES | Kd [1] [nM] | Kd [2] [nM] | Kd [3] [nM] | APTT [4] [s] | Heptest [5] [s] | IC50 [6] [µg/mL] | IC50 [7] [µg/mL] | Kd [2, 9] [nM] | Ki [8] [nM] |
| --- | --- | --- | --- | --- | --- | --- | --- | --- | --- |
| CC(C)CCC[C@@H](C)[C@H]1CC[C@H]2[C@@H]3CCC4CC(O[C@@H]5O[C@H](COS(=O)(=O)O)[C@@H](O[C@@H]6O[C@H](COS(=O)(=O)O)[C@H](OS(=O)(=O)O)[C@H](OS(=O)(=O)O)[C@H]6OS(=O)(=O)O)[C@H](OS(=O)(=O)O)[C@H]5OS(=O)(=O)O)CC[C@]4(C)[C@H]3CC[C@]12C (stereo partly drawn) [Compound 112, 3′-Cholestanyl 2,3,4,6-tetra-O-sulfo-β-D-galactopyranosyl-(1→4)-2,3,6-tri-O-sulfo-β-D-glucopyranoside, heptasodium salt] | 430 ± 140 | 900 ± 150 | 2100 ± 300 | 38.9 | 25.4 | 0.45 | 2.4 | – | – |
| CC(C)CCCC(C)C1CCC2C3CCC4CC(OCc5cn(C6OC(COS(=O)(=O)O)C(OC7OC(COS(=O)(=O)O)C(OC8OC(COS(=O)(=O)O)C(OS(=O)(=O)O)C(OS(=O)(=O)O)C8OS(=O)(=O)O)C(OS(=O)(=O)O)C7OS(=O)(=O)O)C(OS(=O)(=O)O)C6OS(=O)(=O)O)nn5)CCC4(C)C3CCC12C [Compound 76, 4-(Cholestan-3β-yl-oxymethyl)[1,2,3]triazol-1-yl 2,3,4,6-tetra-O-sodium sulfonato-α-D-glucopyranosyl-(1→4)-2,3,6-tri-O-sodium sulfonato-α-D-glucopyranosyl-(1→4)-1-deoxy-2,3,6-tri-O-sodium sulfonato-β-D-glucopyranoside] | 790 ± 230 | – | 610 ± 60 | 61.2 | 30.2 | – | – | 50 ± 8 | 16 ± 4 |
| CC(C)CCCC(C)C1CCC2C3CCC4CC(OC5OC(COS(=O)(=O)O)C(OC6OC(COS(=O)(=O)O)C(OC7OC(COS(=O)(=O)O)C(OS(=O)(=O)O)C(OS(=O)(=O)O)C7OS(=O)(=O)O)C(OS(=O)(=O)O)C6OS(=O)(=O)O)C(OS(=O)(=O)O)C5OS(=O)(=O)O)CCC4(C)C3CCC12C [Compound 87, 3β-Cholestanyl 2,3,4,6-tetra-O-sodium sulfonato-α-D-glucopyranosyl-(1→4)-2,3,6-tri-O-sodium sulfonato-α-D-glucopyranosyl-(1→4)-2,3,6-tri-O-sodium sulfonato-β-D-glucopyranoside] | 190 ± 60 | – | 547 ± 50 | 51.6 | 29.2 | – | – | 24.8 ± 2.3 | 9.1 ± 2.5 |
| CC(C)CCCC(C)C1CCC2C3CCC4CC(OC5OC(COS(=O)(=O)O)C(OS(=O)(=O)O)C(OS(=O)(=O)O)C5OC5OC(COS(=O)(=O)O)C(OS(=O)(=O)O)C(OC6OC(COS(=O)(=O)O)C(OS(=O)(=O)O)C(OC7OC(COS(=O)(=O)O)C(OS(=O)(=O)O)C(OC8OC(COS(=O)(=O)O)C(OS(=O)(=O)O)C(OS(=O)(=O)O)C8OS(=O)(=O)O)C7OS(=O)(=O)O)C6OS(=O)(=O)O)C5OS(=O)(=O)O)CCC4(C)C3CCC12C [Compound 27, 3β-Cholestanyl 2,3,4,6-tetra-O-sodium sulfonato-α-D-mannopyranosyl-(1→3)-2,4,6-tri-O-sodium sulfonato-α-D-mannopyranosyl-(1→3)-2,4,6-tri-O-sodium sulfonato-α-D-mannopyranosyl-(1→3)-2,4,6-tri-O-sodium sulfonato-α-D-mannopyranosyl-(1→2)-3,4,6-tri-O-sodium sulfonato-α-D-mannopyranoside] | 1.04 ± 0.19 | – | 39 ± 6 | 63.3 | 29.6 | – | – | 0.24 ± 0.1 | 5.5 ± 2.6 |
| CC(C)CCCC(C)C1CCC2C3CCC4CC(OC5OC(COS(=O)(=O)O)C(OS(=O)(=O)O)C(OS(=O)(=O)O)C5OC5OC(COS(=O)(=O)O)C(OS(=O)(=O)O)C(OC6OC(COS(=O)(=O)O)C(OS(=O)(=O)O)C(OS(=O)(=O)O)C6OS(=O)(=O)O)C5OS(=O)(=O)O)CCC4(C)C3CCC12C [Compound 39, 3β-Cholestanyl 2,3,4,6-tetra-O-sodium sulfonato-α-D-mannopyranosyl-(1→3)-2,4,6-tri-O-sodium sulfonato-α-D-mannopyranosyl-(1→2)-3,4,6-tri-O-sodium sulfonato-α-D-mannopyranoside] | 319 ± 19 | – | 631 ± 4 | 50.7 | 27.3 | – | – | 18.5 ± 1.8 | 6.4 ± 2.5 |
